Source: ChEMBL document CHEMBL1201862, “PubChem BioAssay data set” (2004)
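Grown in 96-well plates, cells were treated for 48 hours with each compound at five concentrations. Insufficient inhibition: endpoint recorded as highest concentration tested. GI50 marks 50% less growth.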 Calls of active or inactive are those of the source. Cut-off read from the data, not from the text of the source: active = GI50 up to about 1.1 µM and inactive = higher.

Columns and labels:
Assay in all cases: NCI anticancer screen, dose series, 48 h
786-0 = tested on: 786-0
A549 = tested on: A549
BT-549 = tested on: BT-549
CAKI-1 = tested on: CAKI-1
COLO 205 = tested on: COLO 205
EKVX = tested on: EKVX
Hs-578T = tested on: Hs-578T
K562 = tested on: K562
MDA-MB-231 = tested on: MDA-MB-231
MDA-MB-435 = tested on: MDA-MB-435
Malme-3M = tested on: Malme-3M
OVCAR-4 = tested on: OVCAR-4
OVCAR-5 = tested on: OVCAR-5
PC-3 = tested on: PC-3
SF-295 = tested on: SF-295
SNB-19 = tested on: SNB-19
SNB-75 = tested on: SNB-75
SW-620 = tested on: SW-620
UACC-62 = tested on: UACC-62
UO-31 = tested on: UO-31

| SMILES | GI50 (786-0) | GI50 (A549) | GI50 (BT-549) | GI50 (CAKI-1) | GI50 (COLO 205) | GI50 (EKVX) | GI50 (Hs-578T) | GI50 (K562) | GI50 (MDA-MB-231) | GI50 (MDA-MB-435) | GI50 (Malme-3M) | GI50 (OVCAR-4) | GI50 (OVCAR-5) | GI50 (PC-3) | GI50 (SF-295) | GI50 (SNB-19) | GI50 (SNB-75) | GI50 (SW-620) | GI50 (UACC-62) | GI50 (UO-31) |
| --- | --- | --- | --- | --- | --- | --- | --- | --- | --- | --- | --- | --- | --- | --- | --- | --- | --- | --- | --- | --- |
| c1csc(-c2cc(-c3ccsc3)c(-c3cccs3)s2)c1 | > 100 µM (inactive) | 92.7 µM (inactive) | 46.2 µM (inactive) | > 100 µM (inactive) | 23.1 µM (inactive) | 16 µM (inactive) | > 100 µM (inactive) | 69.8 µM (inactive) | 29.8 µM (inactive) | 39.4 µM (inactive) | 59.2 µM (inactive) | > 100 µM (inactive) | > 100 µM (inactive) | > 100 µM (inactive) | > 100 µM (inactive) | > 100 µM (inactive) | 17.9 µM (inactive) | 74.3 µM (inactive) | 48.4 µM (inactive) | 76.2 µM (inactive) |
| C/C=C\C1OC1(C)c1cc(=O)c2c(C)cc3c(c2o1)C(=O)c1c(O)c(C2CC(C)(N(C)C)C(OC(C)=O)C(C)O2)cc(C2CC(N(C)C)C(O)C(C)O2)c1C3=O (stereo not given) | < 0.00375 µM (active) | < 0.00375 µM (active) | 0.00596 µM (active) | < 0.00375 µM (active) | < 0.00375 µM (active) | 0.00836 µM (active) | 0.00766 µM (active) | < 0.00375 µM (active) | 0.0067 µM (active) | 0.00449 µM (active) | 0.0124 µM (active) | 0.00461 µM (active) | 0.00546 µM (active) | 0.00405 µM (active) | < 0.00375 µM (active) | 0.00621 µM (active) | < 0.00375 µM (active) | < 0.00375 µM (active) | < 0.00375 µM (active) | 0.00509 µM (active) |
| O=C1CSC2(CC(/C=C/c3cccc(Br)c3)=NN2c2cccc(S(=O)(=O)O)c2)N1c1nc2ccccc2s1 (stereo not given) | > 100 µM (inactive) | > 100 µM (inactive) | > 100 µM (inactive) | > 100 µM (inactive) | > 100 µM (inactive) | > 100 µM (inactive) | > 100 µM (inactive) | 42.8 µM (inactive) | > 100 µM (inactive) | 62.4 µM (inactive) | > 100 µM (inactive) | > 77.8 µM (inactive) | > 100 µM (inactive) | > 100 µM (inactive) | > 100 µM (inactive) | > 100 µM (inactive) | > 100 µM (inactive) | > 100 µM (inactive) | 80.2 µM (inactive) | > 96.6 µM (inactive) |
| O=C1C=CC(=O)C(CNc2ccc(C(=O)OC34CC5CC(CC(C5)C3)C4)cc2)=C1 | 10.3 µM (inactive) | 16.1 µM (inactive) | 5.12 µM (inactive) | 0.753 µM (active) | 2.04 µM (inactive) | 6.53 µM (inactive) | 2.38 µM (inactive) | 4.52 µM (inactive) | 14 µM (inactive) | 5.93 µM (inactive) | 4.58 µM (inactive) | 3.01 µM (inactive) | 15.1 µM (inactive) | 6.07 µM (inactive) | 16.6 µM (inactive) | 12.8 µM (inactive) | 3.39 µM (inactive) | 10.5 µM (inactive) | 5.14 µM (inactive) | 4.24 µM (inactive) |
| CC(C)/C(Cl)=N/OC(=O)Nc1ccc(F)c(Cl)c1 | 1.6 µM (inactive) | 18.1 µM (inactive) | 5.06 µM (inactive) | 1.68 µM (inactive) | 1.77 µM (inactive) | 2.07 µM (inactive) | 21.6 µM (inactive) | 1.09 µM (active) | 16.2 µM (inactive) | 7.26 µM (inactive) | 1.96 µM (inactive) | 8.49 µM (inactive) | 19.2 µM (inactive) | 16.1 µM (inactive) | 16.1 µM (inactive) | 22.6 µM (inactive) | 17.8 µM (inactive) | 1.92 µM (inactive) | 14.2 µM (inactive) | 16.7 µM (inactive) |
| COc1cc2[nH]c(=O)[nH]c2c2c(C)c[nH]c12 | > 100 µM (inactive) | > 100 µM (inactive) | > 100 µM (inactive) | > 100 µM (inactive) | > 100 µM (inactive) | > 100 µM (inactive) | > 100 µM (inactive) | > 100 µM (inactive) | > 100 µM (inactive) | > 100 µM (inactive) | > 100 µM (inactive) | > 100 µM (inactive) | > 100 µM (inactive) | > 100 µM (inactive) | > 100 µM (inactive) | > 100 µM (inactive) | > 100 µM (inactive) | > 100 µM (inactive) | > 100 µM (inactive) | > 100 µM (inactive) |
| C/C(=N\Nc1nc2cc(Cl)ccc2s1)c1ccccn1 | 0.617 µM (active) | 0.755 µM (active) | 4.9 µM (inactive) | 0.0653 µM (active) | 0.09 µM (active) | 0.129 µM (active) | 2.89 µM (inactive) | 0.136 µM (active) | 0.405 µM (active) | 1.83 µM (inactive) | 0.834 µM (active) | 0.39 µM (active) | 2.77 µM (inactive) | 1.35 µM (inactive) | 0.914 µM (active) | 1.01 µM (active) | 1.72 µM (inactive) | 0.817 µM (active) | 0.673 µM (active) | 0.0685 µM (active) |
| CC(C)c1c(O)c(O)c2c(c1O)C(=O)C(O)=C1C(C)(C)CCC[C@@]12C | 3.44 µM (inactive) | 3.6 µM (inactive) | 3.29 µM (inactive) | 2.61 µM (inactive) | 1.97 µM (inactive) | 2.9 µM (inactive) | 4.31 µM (inactive) | 2.77 µM (inactive) | 2.92 µM (inactive) | 2.96 µM (inactive) | 3.88 µM (inactive) | 3.26 µM (inactive) | 5.18 µM (inactive) | 2.64 µM (inactive) | 2.96 µM (inactive) | 4.76 µM (inactive) | 3.05 µM (inactive) | 3.29 µM (inactive) | 3.86 µM (inactive) | 2.32 µM (inactive) |
| COC(=O)c1ccccc1/C=C1\Cc2ccc3ccccc3c2C1C (stereo not given) | 81.5 µM (inactive) | 51.3 µM (inactive) | 51.8 µM (inactive) | > 100 µM (inactive) | 60.1 µM (inactive) | 37.7 µM (inactive) | 34.6 µM (inactive) | 37.6 µM (inactive) | > 100 µM (inactive) | 45.7 µM (inactive) | 53.7 µM (inactive) | 45.6 µM (inactive) | 13.2 µM (inactive) | 60.7 µM (inactive) | 70.8 µM (inactive) | > 100 µM (inactive) | 72.4 µM (inactive) | 93.3 µM (inactive) | 57 µM (inactive) | 42.1 µM (inactive) |
| O=C(O)CC1NC(/C(=C/c2ccccc2O)NC(=O)c2ccccc2)OC1=O (stereo not given) | 30.3 µM (inactive) | > 100 µM (inactive) | 13.9 µM (inactive) | > 56.1 µM (inactive) | > 100 µM (inactive) | > 33.7 µM (inactive) | 24.7 µM (inactive) | > 100 µM (inactive) | 22.1 µM (inactive) | 9.29 µM (inactive) | 55.7 µM (inactive) | 7.59 µM (inactive) | > 100 µM (inactive) | 49 µM (inactive) | 26.6 µM (inactive) | 17.8 µM (inactive) | 7.21 µM (inactive) | > 100 µM (inactive) | 25.8 µM (inactive) | 33.9 µM (inactive) |
